Source: EP1588705A1, “Use of coumarin derivatives” (INTE:LIGAND Software-Entwicklungs und Consulting GmbH, priority 2004, dated 2005)
Counter-ions that a name gives are not always drawn.

How the values were obtained:
acetylcholinesterase [1] = target: T1, acetylcholinesterase (Electrophorus electricus, UniProt O42275); assay: biochemical
From the text: (§1) In both test systems, the enzyme (acetylcholinesterase, Sigma-Aldrich Chemie GmbH, Steinheim, Germany) hydrolyzes the substrate acetylthiocholine (acetylthiocholiniodid, Sigma-Aldrich Chemie GmbH, Steinheim, Germany) to produce thiocholine. This reacts with Ellman's reagent (5,5'-dithiobis-(2-nitrobenzoic acid), Sigma-Aldrich Chemie GmbH, Steinheim, Germany) resulting in 5-thio-2-nitrobenzoate and the yellow colored 2-nitrobenzoate-5-mercaptothiocholine. This latter was visually detected in the TLC test.
The self absorbance of all ingredients of the assay was corrected by subtracting the absorbance at time zero from the subsequent absorbance values. […] For all three substances the concentration dependence of their AChE inhibitory activity was determined. Percentage of the enzyme inhibition was calculated by comparing the rates for the sample to the blank (containing 1% DMSO) and analyzed with Student's t-test.

[2] = system: extracellular concentration of ACh in the nucleus accumbens; assay: in vivo extracellular ACh concentration, push-pull technique, i.c.v. injection; design: species or system Sprague-Dawley rats; settings: 2 µmol i.c.v.; for extracellular concentration of ACh (relative value, means ± SEM): mean before drug = 1.0
From the text: Surgery and push-pull technique: Sprague-Dawley rats (250-350 g) were anaesthetized with urethane 1,2 g/kg, i.p. The head was fixed in a stereotaxic frame and a push-pull cannula (outer tubing: o.d. 0.75 mm, i.d. 0.41 mm; inner tubing: o.d. 0.26 mm, i.d. 0.13 mm) was mounted on a microdrive. This was stereotaxically inserted through a hole in the skull into the nucleus accumbens (coordinates, mm from bregma: AP, +1.2; L, +2.5; V, -7.8; Paxinos & Watson, 1998). A second hole was drilled into the skull for the i.c.v. application of drugs (coordinates, mm from bregma: AP, -2,8; L, +1,5) The nucleus accumbens was superfused at 20µL/min with artificial cerebrospinal fluid (aCSF), pH 7.2. The CSF consisted of: NaCl,140; KCI, 3; CaCl2, 1.2; MgCl2 1; Na2HPO4, 1; NaH2PO4, 0.3; glucose 3.0 (mmol I^-1), neostigmine 1.0 (µmol/l^-1). After 1 h of the cannula insertion the samples were collected into tubes kept at -20° C in time periods of 10 min and then stored at -80° C until acetylcholine (Ach) was determined.
Using a motorized microsyringe connected to a stereotaxic microdrive, the tip was introduced with an angle of 60° through the drug application-hole into the ipsilateral ventricle (coordinates mm from bregma: AP, -0,9; L, +1,5; V, -3,8) via a cannula (o.d., 0,65; i.d., 0,38). The drug solutions were injected at 2µL/min. The control rats were injected with the vehicle (DMSO: EtOH 1:1).
Histology: At the end of the experiment the rat was killed with an overdose of urethane, the brain was removed and stored in buffered formaldehyde solution (7%). Serial coronal sections were cut at 50 µm intervals. Localisation of the push-pull cannula and i.c.v. microinjection was verified. Experiments with unsatisfactory localisation were discarded.
Determination of acetylcholine: (Ach): ACh content in the samples was determined by HPLC with a cation-exchanging analytical column and a post-column reactor followed by electrochemical detection (Damsma et al, 1997; Prast et al; 1998). The system consisted of a HPLC-pump (JASCO PU-1580, Jasco Corporation, Tokyo, Japan), a pulse dampener and an autosampler (AS-4000, Hitachi Ltd., Tokyo, Japan) with a 100-µL sample loop. […] The peroxide was electrochemically detected by a UniJet platin electrode (3mm) at +500 mV with an amperometric detector (BAS LC-4, Bioanalytical Systems, West Lafayette, IN, USA). […] ACh was quantified with external standards that were injected at the beginning and the end of the analysis.
Statistical significance of drug effects on the extracellular ACh concentration was calculated by Friedman's analysis of variance, followed by Wilcoxon's signed rank test for paired data (a p<0.08, * p<0.05, ** p<0,001) using the mean concentration rate before the administration of drugs as controls. […]

acetylcholinesterase [3] = target: T1, acetylcholinesterase; assay: bioautographic TLC test for AChE inhibitory activity (Ellman's method); format: biochemical; design: purchased Sigma-Aldrich Chemie GmbH, Steinheim, Germany; settings: spots of methanolic extract of S. carniolica rhizomes, Rf 0.6 (SCT) and 0.4 (SCN); false positives excluded
Protocol: The AChE inhibitory activity of the methanolic crude extract was qualitatively determined in a TLC assay using Ellman's method (Ellman, et al, 1961). Additionally a test to exclude false positive results was conducted described by Rhee et al, 2003. The used silica gel TLC plates 60F254 (0.2 mm thickness) were purchased from Merck (Darmstadt, Germany). […] Enzyme inhibitory activities were detected by spraying the substrate, dye and enzyme described by Rhee and coauthors (Rhee et al, 2001).
as §1

mice [4] = assay: object recognition task; format: in vivo
Protocol: (§2) […] female, 3-month mice, weighing 20 - 27 g, were used in the present study. The animals were housed in groups of six to ten in cages (40 (L) x 25 (W) x 15 (H) cm) placed in a room at a constant temperature (22±1 °C), 12-light/ 12-dark cycle (07:00-19:00 h), with food and water ad libitum. Experiments were conducted between 09:00 and 16:00h.
(§3) Mice were anaesthetized with Pentobarbital sodium (60 mg/kg, i.p.) and placed in a stereotaxic frame. A guide cannula (gauge 25, o.d. 0.52 mm, i.d, 0.26 mm and 7 mm long) was stereotaxically implanted through a hole on the skull into the brain area 0.5 mm higher than the third cerebral ventricle (-0.1 mm posterior, 0.8 mm lateral to bregma, -2.2 mm ventral to the dura) (Franklin and Paxinos, 1997). Guide cannula was secured to the skull using two small screws and dental cement. The microinjector (Hamilton gauge 32, o.d. 0.24 mm and i.d. 0.11 mm, 7.5 mm long) protruded 0.5 mm from the tip of the guide cannula to reach the cerebral ventricle. Mice recovered for 5 days before any experimentation was done.
Scopolamine hydrobromide (Sigma, St. Louis, MO, U.S.A.) was dissolved in saline. […]
Exploration was defined as follows: directing the nose toward the object at a distance of less than 0.5 cm and/or touching the object with the nose. […] The times spent by mice in exploring each object during T1 and T2 were recorded manually by using a stopwatch. […]

mice [5] = assay: T-maze continuous alternation; format: in vivo
Protocol: as §2, §3
Scopolamine hydrobromide (Sigma, St. Louis, MO, U.S.A.) was dissolved in saline. SCT (Sigma-Aldrich Chemie GmbH, Steinheim, Germany) was dissolved in vehicle solution (DMSO:sterile water, 3:7). The animals were randomly divided into experimental groups and administered a cerebral ventricle injection of saline, scopolamine, SCT or scopolamine and SCT in a volume of 1 or 2 µl during 1 min. The injector was left in place an extra 1 min for drug diffusion after injection. These substances and vehicle were injected 15 min prior to the test.
Animals were randomly divided into […] experimental groups (6 mice per group) as follows: vehicle, scopolamine hybrobromide 20 µg (50 nmol) in 1µl ICV, SCT 2 µg (10 nmol) in 2µl ICV and scopolamine hybrobromide 20 µg plus SCT 2 µg ICV. All substances were injected 15 min before the test (T-maze and open field) or before the training trial T1 (object recognition test) through the 7.5 mm long injector connected with i.d. 0.28 mm polyethylene tubing to 5 µl Hamilton syringe. […]

mice [6] = assay: open field locomotor behaviour; format: in vivo; settings: 2 µg ICV, 30 min
Protocol: as §2
as §3, with “done. […]” for “done.”
The open field consisted of a transparent plastic box with white floor (41 x 41 x 41 cm) equipped with an automated activity monitoring system (True Scan, Coulbourn Instruments, Allentown, USA). […] The time spent in box and the overall distance travelled by the mice were monitored for 30 min. […]

T1 sequence (O42275 24-633): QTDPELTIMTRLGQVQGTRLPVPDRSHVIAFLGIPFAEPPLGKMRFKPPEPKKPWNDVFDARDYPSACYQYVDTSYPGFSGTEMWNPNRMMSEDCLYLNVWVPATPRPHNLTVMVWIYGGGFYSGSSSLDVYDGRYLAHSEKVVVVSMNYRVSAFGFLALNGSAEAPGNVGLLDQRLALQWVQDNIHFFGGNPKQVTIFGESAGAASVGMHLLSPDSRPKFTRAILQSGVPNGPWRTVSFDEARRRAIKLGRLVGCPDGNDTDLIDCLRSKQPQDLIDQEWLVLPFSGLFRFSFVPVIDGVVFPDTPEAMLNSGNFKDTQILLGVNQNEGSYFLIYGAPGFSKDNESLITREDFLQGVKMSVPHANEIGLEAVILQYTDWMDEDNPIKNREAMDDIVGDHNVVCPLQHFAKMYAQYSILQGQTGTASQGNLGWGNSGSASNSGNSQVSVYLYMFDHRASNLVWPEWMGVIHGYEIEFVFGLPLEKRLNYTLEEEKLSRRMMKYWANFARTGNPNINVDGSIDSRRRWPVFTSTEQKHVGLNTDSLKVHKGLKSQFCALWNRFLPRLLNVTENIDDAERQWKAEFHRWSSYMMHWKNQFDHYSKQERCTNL

SMILES | inhibition of AChE, statistical significance (acetylcholinesterase [1]; 1000, 500 and 250 µM) | inhibition at 1000 µM (acetylcholinesterase [1]; read-out: AChE inhibitory activity) | time until inhibitory activities reach their maximum extent (acetylcholinesterase [1]; three highest concentrations) | change of inhibitory activity towards endpoint of measurement at 90 min (acetylcholinesterase [1]; three highest concentrations, after maximum in first 15 min) | ACh concentration after decline, of basal value ([2]; following the initial peak) | initial peak concentration of ACh, of basal value ([2]; rat nucleus accumbens) | extracellular concentration of ACh (relative value, means ± SEM) ([2]; rat nucleus accumbens) | AChE inhibitory activity of fluorescent TLC spot (acetylcholinesterase [3]) | change of inhibitory activity up to 90 min (acetylcholinesterase [1]; higher concentrations (250, 500, 1000 µM)) | duration of inhibitory activity (acetylcholinesterase [1]; lower concentrations (62.5, 125 µM)) | time until level of inhibitory activity is reached (acetylcholinesterase [1]; lower concentrations (62.5, 125 µM), after adding enzyme to substrate) | discrimination index, effect on scopolamine-induced impairment of object recognition (mice [4]; SCT 2 µg ICV plus scopolamine 20 µg ICV, 15 min before T1, mice) | alternation rate (mice [5]; 2 µg ICV alone) | effect on scopolamine-induced decrease in alternation rate (mice [5]; SCT 2 µg ICV plus scopolamine 20 µg ICV) | move distance, reduction compared to vehicle-treated controls (mice [6]) | move time in the open field (mice [6]; vs vehicle-treated controls) | effect on learning in object recognition (discrimination novel vs familiar object in T2) (mice [4]; 20 µg ICV, mice) | effect on alternation rate (mice [5]; 20 µg ICV)
COc1cc2ccc(=O)oc2cc1O[C@@H]1O[C@H](CO)[C@@H](O)[C@H](O)[C@H]1O [SCN, scopolin] | significant | 30.1% | ≤ 15 min | slight decrease | about 200% | about 400% | 3.18 ± 0.78 | positive | – | – | – | – | – | – | – | – | – | –
COc1cc2ccc(=O)oc2cc1O [SCT, scopoletin] | – | – | – | – | – | – | 1,74 ± 0,24 | positive | slight, almost insignificant increase | at least 90 min | ≤ 15 min | significantly increased | 63 ± 5% | abolished | about 20% | only slightly decreased | – | –
CN1[C@@H]2C[C@@H](OC(=O)[C@H](CO)c3ccccc3)C[C@H]1[C@@H]1O[C@@H]12 [Scopolamine, Scopolamine hydrobromide, reference compound] | – | – | – | – | – | – | – | – | – | – | – | – | – | – | – | – | drastic impairment of learning | pronounced decrease
